This note sets out measurements from patent publication US12128040B2, “Selective estrogen receptor degraders” (Eli Lilly and Company, priority 2018, dated 2024).

The structures appear in SMILES notation.

In assay [1] the test system is Y537N mutant ERα receptor. The assay can be described thus: PRα inhibition (ERα functional antagonism) cell assay in MCF7-ESR1 Y537N 682 CRISPR cells. In kind it is cell-based. As to conditions: Homo sapiens; MCF7-ESR1 Y537N 682 cells, 72 hours, n=14; read-out: Relative IC50 (nM), PRα inhibition. The source says: The purpose of the following PRα inhibition (ERα functional antagonism) cell assay is to determine the antagonistic activity of a test compound against the Y537N mutant ERα receptor. An antagonist in this assay is expected to block the function of the ERα receptor.
Culture MCF7-ESR1 Y537N-682 (generated by CRISPR/Cas9 gene editing of ESR1 gene in MCF7 cells, clone #682) in DMEM media supplemented with 10% FBS and 1% penicillin/streptomycin antibiotics and plate the cells (prior to becoming 70% confluent) in 384-well flat-bottom plates at a density of 4,000 cells per well in DMEM phenol red free media 10% FBS (20 μL volume) (charcoal stripped). Incubate the cells overnight in a cell culture incubator (5% CO2, 95% relative humidity and 37° C.) and allow the cells to attach to the plate. The following day dose the cells with the test compound. Use an Echo 555 acoustic dispenser to prepare compound serial dilutions (1:3) in a range from 6 μM to 0.0003 μM. […]
The following day, wash the cells with PBS […] (2×20 μL) and incubate with secondary antibody (20 μL/well) (1:1000 dilution, Goat anti-rabbit IgM ALEXA FLUOR™ 488) in PBS 1% BSA for 105 minutes at room temperature. […] Scan the plates with ACUMEN EXPLORER™ [Laser-scanning fluorescence microplate cytometer manufactured by TTP LABTECH LTD] to measure progesterone receptor alpha. […]

Another assay concerns MCF7 xenograft tumor. The assay can be described thus: In vivo tumor growth inhibition study in MCF7 xenograft tumor implanted in mice. As to conditions: MCF7 breast cancer xenograft, 30 mg/kg QD, oral gavage. On the procedure: The purpose of the following xenograft tumor growth inhibition assay is to measure reduction in tumor volume in response to test compound administration.
Twenty-four hours prior to implantation of MCF7 cells, implant estrogen pellets (0.18 mg/pellet, […], 90-day release, Innovative Research) subcutaneously.

The test system of assay [2] is MCF7-ESR1 Y537N mutant cells. The assay can be described thus: Cell proliferation assay in MCF7-ESR1 Y537N-682. The assay is classed as cell-based. As to conditions: Homo sapiens, seven days, n=6, read-out: Relative IC50 (nM), cell proliferation.
The subject of the next assay is MCF7 ESR1 wild type. The assay can be described thus: Cell proliferation assay in MCF7. In kind it is cell-based. The conditions noted are these: Homo sapiens, seven days, n=2, read-out: Relative IC50 (nM), cell proliferation. The text has this:
The purpose of the following cell proliferation assays generally is to detect whether a test compound has effects on cell proliferation, cell viability, and cytotoxicity in response to treatment in cell culture experiments. Cell proliferation is monitored by monitoring the number of cells over time and the […] assay used allows continuous measurement of cell viability over time.
Seed MCF7 (purchased from ATCC HTB-22) cells at a density of 2,000 cells per well in DMEM phenol red free media 10% FBS (20 μL volume) (charcoal stripped) into a clear bottom 384-well cell culture plate. […] Scan the plates with ACUMEN EXPLORER™ [Laser-scanning fluorescence microplate cytometer manufactured by TTP LABTECH LTD]. The MCF-7 cell line grows forming aggregates, cell number as number of objects may not be able to be used as readout; so the cell number may be evaluated through estimated number of cells (calculated through the area parameter (ratio of total area of the total cells population (a designated range of peak intensity of FL-1 (PI) and the mean area of the single cells population (defined by perimeter)). Determine the IC50 by curve fitting to a four parameter logistic for each output using GENE DATA™.

Take `O=C(c1ccc(OCCN2CC(CF)C2)cc1)c1c(-c2ccc(C(F)(F)F)cc2F)cnc2cc(O)ccc12` [Example 1, (4-{2-[3-(Fluoromethyl)azetidin-1-yl]ethoxy}phenyl){3-[2-fluoro-4-(trifluoromethyl)phenyl]-7-hydroxyquinolin-4-yl}methanone]: the IC50 in assay [1] came to 7.6 ± 4.8 nM; in assay [2] it was 7.96 ± 3.69 nM; with MCF7 ESR1 wild type, 9.24 ± 1.74 nM. Further, in the assay with MCF7 xenograft tumor, the “Delta T/C % or Regression %” value was −36%.
